Counter-ions that a name gives are not always drawn. Like-named read-outs stand apart in the source and are kept apart here.
Tests used:
[1] = abstinence syndrome test (body weight after drug withdrawal); settings: for Abstinence syndrome: subcutaneous, twice a day, male rats, body weight decrease the day after withdrawal
Description: Groups of male rats of Wister strain (body weight, 150 g), each group
consisting of 20 male rats, were subcutaneously given the test compound
twice a day for 4 consecutive weeks. On the next day after drug
withdrawal, body weight was measured. The symbols have the following
meanings: +++, severe decrease (about 5% decrease); ++, moderate decrease
+, mild decrease; -, no decrease. A marked decrease is taken as an […]

[2] = cited from earlier work
[3] = cited from earlier work; remark: listed apart in the source
[4] = test system: typical syndrome produced by intraperitoneal injection of 0.6% aqueous acetic acid; assay: writhing test (acetic acid); format: in vivo, mice; settings: for ED50: Mus musculus
Description: The test was based on the specific antagonism of the test compound to
typical syndrome produced by intraperitoneal injection of 0.6% aqueous
acetic acid. The syndrome was characterized by intermittent contractions
of the abdomen, twisting and turning of the trunk and extension of the
hind legs. A group of 5 mice was used for each dose level. The test
compound was administered 60 minutes before the injection of acetic acid
subcutaneously (sc) or orally (po).
pain response was recorded. The ED50 value was calculated according
to the LitchfieldWilcoxen's method.

[5] = sc, subcutaneous, 60 minutes before acetic acid, mice, Litchfield-Wilcoxen, read-out: ED50 SC
[6] = oral, 60 minutes before acetic acid, mice, Litchfield-Wilcoxen, read-out: ED50 PO

CC1C2Cc3ccc(O)cc3C1(C)CCN2C (stereo not drawn) [2'-Hydroxy-2,5,9-trimethyl-6,7-benzomorphan]
Abstinence syndrome ([1]; 20 mg/kg/day for 4 weeks): ++
analgesia ([2]; U.S. Pat. No. 3,138,603): potent analgesia
addiction liability ([3]; U.S. Pat. No. 3,138,603): has an addiction liability

CC(C)=CCN1CCC2(C)c3cc(O)ccc3CC1C2C (stereo not drawn) [2'-hydroxy-5,9-dimethyl-2-(3"-methyl-2"-butenyl)-6,7-benzomorphan]
ED50 [4, 5]: 17.6 mg/kg
ED50 [4, 6]: 98 mg/kg

CC1C2Cc3ccc(O)cc3C1(C)CCN2CCCC(=O)c1ccc(F)cc1 (stereo not drawn) [2-[γ-(p-fluorobenzoyl)-propyl]-2'-hydroxy-5,9-dimethyl-6,7-benzomorphan]
effectiveness by route of administration ([2]; 2-[γ-(p-fluorobenzoyl)-propyl]-2'-hydroxy-5,9-dimethyl-6,7-benzomorphan): effective when administered parenterally rather than orally
analgesic activity ([2]; U.S. Pat. No. 3,833,595): significant analgesic activity
drug addiction ([3]; U.S. Pat. No. 3,833,595): without causing drug addiction

Cc1ccc2c(c1)C1(C)CCN(CCCC(=O)c3ccc(F)cc3)C(C2)C1C (stereo not drawn) [Example 1, 2-[γ-(p-Fluorobenzoyl)-propyl]-2',5,9-trimethyl-6,7-benzomorphan]
ED50 [4, 5]: 7.9 mg/kg
ED50 [4, 6]: 9.6 mg/kg
analgesic effectiveness compared with pentazocine ([4]; oral and subcutaneous administration): more effective than pentazocine
Abstinence syndrome ([1]; 40 mg/kg/day for 4 weeks): -
addictive property ([1]; as shown in Table 2): did not exhibit any addictive property

CN1CC[C@]23c4c5ccc(O)c4O[C@H]2[C@@H](O)C=C[C@H]3[C@H]1C5 [Morphine . hydrochloride, Morphine]
ED50 ([4]; po, read-out: ED50 PO): 7 mg/kg
ED50 ([4]; sc, read-out: ED50 SC): 1.6 mg/kg

Source: US4241070A, “Analgesic benzomorphan derivatives” (priority 1975, dated 1980)
